Source: paper PMC11783400, “Assessment of Potential Drug–Drug Interactions for Novel Oral Melanocortin‐1 Receptor Agonist Dersimelagon” (Pharmacology Research & Perspectives, 2025)

Biological target: T1, CYP2C9 (Homo sapiens, UniProt P11712)
T1 construct: native enzyme in human liver microsomes
Assay: CYP activity inhibition in human liver microsomes
Type: biochemical
Source text: CYP activity inhibition in human liver microsomes on CYP2C9

T1 sequence (P11712 whole entry): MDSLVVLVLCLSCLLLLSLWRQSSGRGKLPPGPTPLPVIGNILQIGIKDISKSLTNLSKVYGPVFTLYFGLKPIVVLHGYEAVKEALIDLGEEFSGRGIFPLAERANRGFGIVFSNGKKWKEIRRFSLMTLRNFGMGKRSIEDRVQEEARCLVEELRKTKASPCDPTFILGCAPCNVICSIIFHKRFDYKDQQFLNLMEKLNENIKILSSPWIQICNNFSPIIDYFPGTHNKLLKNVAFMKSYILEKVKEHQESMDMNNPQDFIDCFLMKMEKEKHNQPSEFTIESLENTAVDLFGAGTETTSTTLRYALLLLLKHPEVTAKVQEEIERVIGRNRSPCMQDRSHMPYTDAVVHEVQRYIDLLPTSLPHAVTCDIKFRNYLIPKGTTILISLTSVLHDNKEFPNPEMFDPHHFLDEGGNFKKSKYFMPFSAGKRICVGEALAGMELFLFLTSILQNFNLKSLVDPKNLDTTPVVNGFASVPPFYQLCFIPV

- IC50 (read-out: IC50 (μM) / Direct inhibition): 9.16 µM
- Ki (read-out: Parameters / K i): 5.13 µM
SMILES: COC[C@H]1CN(C(=O)[C@]2(F)CN(C3CCCC3)C[C@H]2c2ccc(OC)cc2)C[C@@H]1c1ccc(C(F)(F)F)cc1N1CCC(C(=O)O)CC1 [dersimelagon]
